# Measurements taken from PMC5699933 (Journal of medicinal chemistry, 2017).
# How the values were obtained:
# PAMPA-BBB assay = conditions: in-house conditions; 17 h, 200 μM, 25 °C, triplicate
# [1] = earlier pharmacokinetic studies; cited from earlier work
# CYPs = conditions: earlier pharmacokinetic studies; cited from earlier work
Structure (SMILES),Determined Pe (PAMPA-BBB assay),human microsome metabolism [1],CYPs inhibition (CYPs)
"CNCc1cccc(-c2cncc(CCc3cc(C)cc(N)n3)c2)c1 [Compound 16, 4-Methyl-6-(2-(5-(3-((methylamino)methyl)phenyl)pyridin-3-yl)ethyl)pyridin-2-amine]",5.56 10^−6 cm s^−1,–,–
"CNCc1cccc(-c2cc(F)cc(CCc3cc(C)cc(N)n3)c2)c1 [Compound 18, 6-(2-(5-Fluoro-3′-((methylamino)methyl)-[1,1′-biphenyl]-3-yl)ethyl)-4-methylpyridin-2-amine]",17.41 10^−6 cm s^−1,–,–
CNCCCc1cncc(CCc2cc(C)cc(N)n2)c1 [Compound 6],–,little,very poor

# Continued, in another order:
Determined Pe (PAMPA-BBB assay),Structure (SMILES),human microsome metabolism [1],CYPs inhibition (CYPs)
0.15 ± 0.04 10^−6 cm s^−1,Cn1c(=O)c2[nH]cnc2n(C)c1=O.O [Theophylline],–,–
20.52 ± 0.64 10^−6 cm s^−1,CNCCCN1c2ccccc2CCc2ccccc21 [Desipramine],–,–
